“Also recorded” adds a separate entry of the source.
Columns and labels:
Assay type in all cases: cell-based, Human cytomegalovirus (HCMV)
[1] = test system: HCMV infection of HEL fibroblasts; test: Peptide blocking assay, infection of HEL fibroblasts (percent IE positive cells); settings: peptide 1 100 μg/ml, MOI=2.0
Protocol: FIG. 9. […] TB40E-GFP encoding the viral PC or AD169 lacking PC were preincubated with peptide 1 (100 μg/ml) and then infected on ARPE19 epithelial cells or HEL fibroblasts (MOI=2.0). Cells were fixed, permeabilized, stained for DNA, immunostained for anti-immediate early protein (IE) and imaged. […] Values indicate the mean percentage of infected cells of n=3 experiments±SD. **p<0.01; ***p<0.001.
Live cell images: Phase and GFP signal images were captured on a Zeiss microscope (Zeiss AxioObserver Z1) at 10× magnification. Fixed cell images: cells were washed with PBS (Life Technologies) and fixed with 4% formalin in PBS (Sigma). DNA was stained with Hoechst 33342 dye (Life Technologies). The fixed cells were imaged using an Image Xpress Micro (IXM, Molecular Devices) at 4× magnification. Images were analyzed with MetaXpress imaging software (Molecular Devices) to determine the total cells per well and the percentage of infected cells (GFP positive) in each well. For IE immunostaining: fixed cells were permeabilized with 0.2% Triton X-100 (Sigma) in PBS. Blocking was performed with 1% BSA (Calbiochem, 2930) in PBS with 0.3M glycine (Sigma). Cells were then incubated in antibody targeting the major IE proteins (IE, EMD Millipore, MAB8131) diluted in 1% BSA in PBS. […]

[2] = test system: TB40E virus infection of epithelial cell lines; test: Peptide blocking assay, infection of several epithelial cell lines (percent GFP positive cells); settings: Peptide 1 100 μg/ml, MOI=2.0, 2 dpi
Protocol: FIG. 10. […] Peptide 1 (100 μg/ml), or DMSO alone was preincubated with TB40E virus, followed by infection of the indicated epithelial cell lines (MOI=2.0). Cells were fixed and imaged for GFP and DNA at 2 dpi. […] Values indicate the mean percentage of infected cells of three experiments±SD. **p<0.01; ***p<0.001.
The noted synthetic peptides (100 ug/ml each or as described) were mixed with TB40E-GFP virus (1.2×10^6 PFU) and incubated at 37° C. for 2 h by rocking. The resulting samples were then subjected to the virus binding or infection assay.

[3] = test system: HCMV TB40E-GFP replication in ARPE19 cells; test: Plaque assay of culture supernatants for infectious virus; settings: peptide 1 100 μg/ml, ARPE19, MOI=2.0, supernatants at indicated dpi
Protocol: (A) Different amounts of peptide 1 were preincubated with TB40E-GFP virus and the mixture applied to ARPE19. Viral DNA levels were quantified by qPCR. (B) The results in (A) are presented as the relative amount of viral DNA relative to the DMSO control. (C) TB40E-GFP virus was preincubated with peptide 1 (100 μg/ml), or DMSO, followed by infection of ARPE19 cells (MOI=2.0). Cells were imaged for GFP expression at 2 dpi (D2) and 7 dpi (D7). (D) TB40E-GFP or BADrUL131-GFP virus, both expressing PC, were preincubated with peptide 1 (100 μg/ml), or DMSO prior to infection of ARPE19 cells (MOI=2.0). Cells were fixed and imaged for GFP at 2 dpi. All data represent the mean of n=3 experiments+/−SD. (E) Culture media supernatants from (C) were harvested on the indicated dpi and assayed for infectious virus by plaque assay. Values indicate the mean percent infected cells of 3 independent experiments±SD. ****p<0.0001.

[4] = test system: TB40E-GFP infection of ARPE19 cells; test: cAMP/PKA signaling pathway modulation, TB40E-GFP infection; settings: H-89 20 μM, SQ22536 150 μM, FSK 20 μM, 2 h prior to infection, MOI=4.0, 48 hpi
Protocol: FIGS. 7A-C. HCMV receptor engagement and cAMP/PKA signaling. ARPE19 or OR14I1 knock down cells were pretreated with phosphokinase A (PKA) inhibitor H-89 (20 μM), adenylate cyclase antagonist, SQ22536 (150 μM), or adenylate cyclase activator, forskolin (FSK; 20 μM) for 2 h prior to TB40E-GFP infection (MOI=4.0). Cells were fixed at 48 hpi and images taken.
H-89, SQ22536 and Foskolin were purchased from Sigma-Aldrich Chemicals. Wild type ARPE19 or ARPE19 cells expressing the indicated shRNAs were treated with protein kinase A (PKA) inhibitor H-89 (20 μM), adenylate cyclase antagonist, SQ22536 (150 μM), or adenylate cyclase activator, forskolin (FSK; 20 μM) for 2 h prior to infection with TB40E-GFP (MOI=2.0). After 2 h, the medium was then replaced by the standard medium that also contained the noted small molecules. Images were taken at 2 dpi.
HCMV receptor engagement and cAMP/PKA signaling was also evaluated. ARPE19 or OR14I1 knock down cells were pretreated with phosphokinase A (PKA) inhibitor H-89 (20 μM), adenylate cyclase antagonist, SQ22536 (150 μM), or adenylate cyclase activator, forskolin (FSK; 20 μM) for 2 h prior to TB40E-GFP infection (MOI=4.0).

For “MDNLTKVTEFLLMEFSGIWELQVLHA (N-terminal fragment of OR14I1) [Peptide 1, synthetic peptide representing the N-terminus of OR14I1, position 1-26]”, the “PC+ HCMV infection of fibroblasts” value [1] was “modest effect”, the “PC+ virus infection of multiple epithelial cell lines (percent GFP positive cells)” value [2] was “prevented PC+ virus infection; also recorded: inhibits HCMV infection of several epithelial cell lines” and the “long-term replication of HCMV (infectious virus by plaque assay)” value [3] was “compromised the long-term replication of HCMV”. For the same sequence, the “infectivity of TB40E-GFP in ARPE19 epithelial cells” value [4] was “reduced infectivity significantly”.

Source: patent publication US12268901B2, “Targeting cell tropism receptors to inhibit cytomegalovirus infection” (priority 2017, dated 2025)
